In experiment [1] the target is DP4.1 (HLA-DPA1*01:03/DPB1*04:01) (Homo sapiens, UniProt P04440+P20036). Description: fluorescence polarization competition binding assay, DP4.1. Background: Fluorescence polarisation rises when a labelled molecule tumbles more slowly, as on binding a larger partner.
For a further experiment, the target named is DR2a (DRB5*01:01) (Homo sapiens, UniProt P01903+Q30154). Description: fluorescence polarization competition binding assay, DR2a.
Setting [2] is: fluorescence polarization competition, soluble DP4.1-Clip 250 nM, 25 nM Alexa488 oxytocinase probe peptide, 500 nM HLA-DM, 24 h 37°C, mean of two independent experiments, read-out: Mean IC50, DPA*01:03/DPB1*04:01.

Results on 21 compounds are retold here after paper PMC10409285 (PLOS Pathogens, 2023).

“And” between values parts separate entries of the source, which are not always exact repeats. Equal entries are not always repeated. Where two headings read alike, the source gives them in different places. No end group written: not given here. Where only a bound is given, the exact number is not on record here.

`CC(C)C[C@H](NC(=O)CNC(=O)[C@H](CO)NC(=O)[C@@H](NC(=O)[C@@H](NC(=O)[C@@H](NC(=O)[C@H](CCCCN)NC(=O)[C@H](CO)NC(=O)[C@H](Cc1ccccc1)NC(=O)[C@H](CC(C)C)NC(=O)[C@H](CC(C)C)NC(=O)[C@H](CC(=O)O)NC(=O)[C@H](CCC(=O)O)NC(=O)[C@H](CC(C)C)NC(=O)[C@H](C)NC(=O)[C@@H](N)CO)C(C)C)C(C)C)[C@@H](C)O)C(=O)NCC(=O)O` [NL63-146] came in with an IC50 in experiment [1] of 3.48 µM. `CC[C@H](C)[C@H](NC(=O)CNC(=O)[C@H](CC(N)=O)NC(=O)[C@@H](NC(=O)[C@H](Cc1ccccc1)NC(=O)[C@H](CC(=O)O)NC(=O)[C@H](CO)NC(=O)[C@@H](N)CC(C)C)[C@@H](C)CC)C(=O)N[C@@H](Cc1ccccc1)C(=O)N[C@@H](C)C(=O)N[C@@H](CCCCN)C(=O)N[C@H](C(=O)N[C@@H](CCCCN)C(=O)N[C@@H](CC(N)=O)C(=O)N[C@H](C(=O)N[C@@H](CCCCN)C(=O)O)[C@@H](C)O)C(C)C` [Peptide P3] registered an IC50 in experiment [1] of 3.16 µM. Consider `CC(C)C[C@H](NC(=O)[C@@H](NC(=O)[C@@H]1CCCN1C(=O)[C@@H](N)CC(N)=O)C(C)C)C(=O)N1CCC[C@H]1C(=O)N[C@@H](Cc1ccccc1)C(=O)N[C@@H](CC(N)=O)C(=O)N[C@@H](CC(=O)O)C(=O)NCC(=O)N[C@H](C(=O)N[C@@H](Cc1ccc(O)cc1)C(=O)N[C@@H](Cc1ccccc1)C(=O)N[C@@H](C)C(=O)N[C@@H](CO)C(=O)N[C@H](C(=O)N[C@@H](CCC(=O)O)C(=O)O)[C@@H](C)O)C(C)C` [S#17 (CoV2)], for which the IC50 in experiment [1] (setting [2]) was determined as 76 µM. For the compound `CC(C)C[C@H](NC(=O)[C@H](CCCCN)NC(=O)[C@@H](NC(=O)[C@H](CCCCN)NC(=O)[C@H](CC(=O)O)NC(=O)[C@H](Cc1ccccc1)NC(=O)[C@H](CC(C)C)NC(=O)[C@H](CC(C)C)NC(=O)[C@H](CC(=O)O)NC(=O)[C@H](CCC(=O)O)NC(=O)[C@H](Cc1ccccc1)NC(=O)[C@H](Cc1ccccc1)NC(=O)[C@H](CO)NC(=O)[C@H](CCCNC(=N)N)NC(=O)[C@H](CO)NC(=O)[C@H](CO)NC(=O)[C@@H](N)CO)C(C)C)C(=O)O` [HKU1-151], in experiment [1], the IC50 was 2.57 µM. For `CC[C@H](C)[C@H](NC(=O)[C@@H](NC(=O)[C@@H](N)CO)[C@@H](C)CC)C(=O)N[C@@H](C)C(=O)N[C@@H](Cc1ccc(O)cc1)C(=O)N[C@H](C(=O)N[C@@H](CCSC)C(=O)N[C@@H](CO)C(=O)N[C@@H](CC(C)C)C(=O)NCC(=O)N[C@@H](C)C(=O)N[C@@H](CCC(=O)O)C(=O)N[C@@H](CC(N)=O)C(=O)N[C@@H](CO)C(=O)N[C@H](C(=O)N[C@@H](C)C(=O)O)C(C)C)[C@@H](C)O` [S#139 (CoV2)], the IC50 in experiment [1] (setting [2]) came to 292 µM. In turn, `CC(C)C[C@H](NC(=O)[C@H](CCC(=O)O)NC(=O)[C@H](CC(C)C)NC(=O)[C@H](CCCNC(=N)N)NC(=O)[C@H](CO)NC(=O)CNC(=O)[C@H](Cc1ccccc1)NC(=O)[C@H](Cc1ccccc1)NC(=O)[C@H](Cc1ccccc1)NC(=O)[C@H](C)NC(=O)CN)C(=O)N[C@@H](C)C(=O)N[C@@H](CCCCN)C(=O)N[C@H](C(=O)N[C@@H](CCC(N)=O)C(=O)N[C@@H](CC(N)=O)C(=O)O)C(C)C` [Peptide P2] came in with an IC50 in experiment [1] of 118 µM. Same read-out and setting: next, `CC[C@H](C)[C@H](NC(=O)[C@H](C)NC(=O)[C@H](CO)NC(=O)[C@H](CCCNC(=N)N)NC(=O)CNC(=O)[C@H](C)NC(=O)[C@@H](NC(=O)[C@@H](N)CCCNC(=N)N)C(C)C)C(=O)N[C@@H](CCC(=O)O)C(=O)N[C@@H](CC(=O)O)C(=O)N[C@H](C(=O)N[C@@H](CC(C)C)C(=O)N[C@@H](Cc1ccccc1)C(=O)N[C@@H](CO)C(=O)N[C@@H](CCCCN)C(=O)N[C@@H](CC(C)C)C(=O)N[C@H](C(=O)O)C(C)C)[C@@H](C)CC` [Peptide 229E-115]: 5.99 µM. Turning to `CC[C@H](C)[C@H](NC(=O)[C@H](CO)NC(=O)[C@H](CCC(N)=O)NC(=O)[C@H](CO)NC(=O)[C@H](C)NC(=O)[C@@H](NC(=O)[C@@H](N)CO)C(C)C)C(=O)N[C@H](C(=O)N[C@@H](C)C(=O)N[C@@H](Cc1ccc(O)cc1)C(=O)N[C@H](C(=O)N[C@@H](CCSC)C(=O)N[C@@H](CO)C(=O)N[C@@H](CC(C)C)C(=O)NCC(=O)N[C@@H](C)C(=O)O)[C@@H](C)O)[C@@H](C)CC` [S#138 (CoV2)], the IC50 in experiment [1] (setting [2]) stood at 438 µM.

For the compound YLAISNELLLTVPTK [Peptide P1], in experiment [1], the IC50 is < 1 µM and 0.41 µM. Regarding `CC[C@H](C)[C@H](NC(=O)CNC(=O)[C@H](CC(=O)O)NC(=O)[C@H](CCC(N)=O)NC(=O)[C@H](CC(N)=O)NC(=O)[C@H](Cc1ccccc1)NC(=O)[C@H](C)NC(=O)[C@H](CC(C)C)NC(=O)[C@H](CC(C)C)NC(=O)[C@H](Cc1ccc(O)cc1)NC(=O)[C@H](CCC(N)=O)NC(=O)[C@H](CCCNC(=N)N)NC(=O)[C@@H](N)CO)C(=O)N[C@H](C(=O)N[C@@H](Cc1ccccc1)C(=O)N[C@@H](CC(N)=O)C(=O)O)[C@@H](C)CC` [Peptide P13], the IC50 on DR2a (DRB5*01:01) was 43.8 µM. In turn, `CC[C@H](C)[C@H](N)C(=O)N[C@@H](Cc1c[nH]cn1)C(=O)N[C@@H](Cc1ccccc1)C(=O)N[C@@H](CO)C(=O)N[C@@H](Cc1ccc(O)cc1)C(=O)N[C@H](C(=O)N1CCC[C@H]1C(=O)N[C@H](C(=O)N[C@@H](CCCCN)C(=O)N[C@@H](Cc1ccc(O)cc1)C(=O)N[C@H](C(=O)N[C@H](C(=O)N[C@@H](C)C(=O)N[C@@H](CCCNC(=N)N)C(=O)N[C@H](C(=O)N[C@@H](CO)C(=O)N1CCC[C@H]1C(=O)NCC(=O)O)C(C)C)[C@@H](C)O)C(C)C)[C@@H](C)O)C(C)C` [Peptide P7] displayed an IC50 in experiment [1] of 9.44 µM. With `CC[C@H](C)[C@H](NC(=O)[C@H](C)NC(=O)[C@H](CO)NC(=O)[C@@H](N)CCCNC(=N)N)C(=O)N[C@@H](CCC(=O)O)C(=O)N[C@@H](CC(=O)O)C(=O)N[C@@H](CC(C)C)C(=O)N[C@@H](CC(C)C)C(=O)N[C@@H](Cc1ccccc1)C(=O)N[C@@H](CC(=O)O)C(=O)N[C@@H](CCCCN)C(=O)N[C@H](C(=O)N[C@@H](CCCCN)C(=O)N[C@@H](CC(C)C)C(=O)N[C@@H](CO)C(=O)O)C(C)C` [Peptide P4], the IC50 in experiment [1] was found to be 2.99 µM. As for YVYSRVKNLNSSRVPDL [E#9 (CoV2)], the IC50 in experiment [1] (setting [2]) came to 661 µM.

Turning to `CC[C@H](C)[C@H](NC(=O)[C@H](Cc1ccccc1)NC(=O)[C@@H](N)CO)C(=O)N[C@@H](CCC(=O)O)C(=O)N[C@@H](CC(=O)O)C(=O)N[C@@H](CC(C)C)C(=O)N[C@@H](CC(C)C)C(=O)N[C@@H](Cc1ccccc1)C(=O)N[C@@H](CC(N)=O)C(=O)N[C@@H](CCCCN)C(=O)N[C@H](C(=O)N[C@H](C(=O)N[C@@H](CC(C)C)C(=O)N[C@@H](C)C(=O)N[C@@H](CC(=O)O)C(=O)N[C@@H](C)C(=O)O)[C@@H](C)O)C(C)C` [S#164 (CoV2)], the IC50 in experiment [1] (setting [2]) is 128 µM. With `CC[C@H](C)[C@H](N)C(=O)N[C@H](C(=O)N[C@H](C(=O)NCC(=O)N[C@@H](Cc1ccc(O)cc1)C(=O)N[C@@H](CCCNC(=N)N)C(=O)N[C@@H](Cc1ccccc1)C(=O)N[C@H](C(=O)N[C@@H](CC(N)=O)C(=O)N[C@@H](Cc1ccccc1)C(=O)N[C@@H](CCC(=O)O)C(=O)N1CCC[C@H]1C(=O)N[C@@H](Cc1ccccc1)C(=O)N[C@H](C(=O)O)[C@@H](C)O)[C@@H](C)O)[C@@H](C)O)[C@@H](C)O` [Peptide P5], the IC50 in experiment [1] was < 1 µM and 0.3 µM. On the same count and under the same terms, with `CC[C@H](C)[C@H](NC(=O)[C@H](Cc1ccccc1)NC(=O)[C@H](Cc1ccc(O)cc1)NC(=O)[C@H](CC(C)C)NC(=O)CNC(=O)[C@H](Cc1ccc(O)cc1)NC(=O)[C@@H]1CCCN1C(=O)[C@H](C)N)C(=O)N[C@@H](Cc1c[nH]cn1)C(=O)N[C@@H](Cc1ccccc1)C(=O)N[C@@H](CO)C(=O)N[C@@H](Cc1ccc(O)cc1)C(=O)N[C@H](C(=O)N1CCC[C@H]1C(=O)N[C@H](C(=O)N[C@@H](CCCCN)C(=O)O)[C@@H](C)O)C(C)C` [Peptide P6] the figure was 80.5 µM; with NRGRQFYEFYNDVKPP [Peptide P14], 5.14 µM. With `CC(C)C[C@H](NC(=O)[C@H](Cc1ccccc1)NC(=O)[C@@H](NC(=O)[C@@H](NC(=O)CNC(=O)[C@H](Cc1c[nH]cn1)NC(=O)[C@@H]1CCCN1C(=O)[C@H](C)N)C(C)C)C(C)C)C(=O)N[C@@H](Cc1c[nH]cn1)C(=O)N[C@H](C(=O)N[C@H](C(=O)N[C@@H](Cc1ccc(O)cc1)C(=O)N[C@H](C(=O)N1CCC[C@H]1C(=O)N[C@@H](C)C(=O)N[C@@H](CCC(N)=O)C(=O)O)C(C)C)[C@@H](C)O)C(C)C` [S#212 (CoV2)], in experiment [1] (setting [2]), the IC50 stood at 253 µM.

Take `CC(C)C[C@H](NC(=O)[C@H](Cc1ccccc1)NC(=O)[C@@H](N)C(C)C)C(=O)N[C@@H](Cc1c[nH]cn1)C(=O)N[C@H](C(=O)N[C@H](C(=O)N[C@@H](Cc1ccc(O)cc1)C(=O)N[C@H](C(=O)N1CCC[C@H]1C(=O)N[C@@H](C)C(=O)N[C@@H](CCC(N)=O)C(=O)N[C@@H](CCC(=O)O)C(=O)N[C@@H](CCCCN)C(=O)N[C@@H](CC(N)=O)C(=O)N[C@@H](Cc1ccccc1)C(=O)N[C@H](C(=O)O)[C@@H](C)O)C(C)C)[C@@H](C)O)C(C)C` [S#213 (CoV2)]: the IC50 in experiment [1] (setting [2]) came out at 242 µM. In the case of PSASAFFGMSRIGMEVT [N#45 (CoV2)], in experiment [1] (setting [2]), the IC50 turned out to be 544 µM. Same read-out and setting: with `CC[C@H](C)[C@H](NC(=O)[C@H](Cc1ccccc1)NC(=O)[C@H](CO)NC(=O)[C@H](CCCNC(=N)N)NC(=O)[C@H](CCCCN)NC(=O)[C@H](CO)NC(=O)[C@@H]1CCCN1C(=O)[C@@H](N)CCCCN)C(=O)N[C@@H](CCC(=O)O)C(=O)N[C@@H](CC(=O)O)C(=O)N[C@@H](CC(C)C)C(=O)N[C@@H](CC(C)C)C(=O)N[C@@H](Cc1ccccc1)C(=O)N[C@@H](CC(N)=O)C(=O)N[C@@H](CCCCN)C(=O)N[C@H](C(=O)O)C(C)C` [S#163 (CoV2)] the figure was 0.29 µM.
